Assay results taken from US12281363B2, “Methods for detecting antiviral-drug resistant virus” (Secretary of State for Health and Social Care, priority 2018, dated 2025).
Read-outs that look alike come from different tables or passages of the source.

System: HSV-1
Experiment: Plaque reduction assay, HSV-1 clinical isolates on Vero cells
Type: cell-based
Conditions: Human alphaherpesvirus 1, Vero
Text: Viral isolates were used to infect a sub-confluent monolayer of Vero cells at a concentration of 75 or 50 plaque forming units (PFU) per well for HSV-1 and HSV-2, respectively. […] CMC medium typically used to create a semisolid interface and prevents indiscrimate viral spreading. Other materials (e.g. agar) may also be used to create this interface.
Cells were fixed with 10% formalin and stained with crystal violet before enumeration of the plaques (microscopic observation or use of fluorescent antibodies for detection is also suitable). The data obtained from these experiments were then expressed as percent inhibition of viral infectivity relative to the no drug control.
Definitions of phenotypic drug susceptibility classification as sensitive or resistant were as follows: ACV, <3 μM or >40 μM; PCV, <10 μM or >40 μM; CDV, <24 μM or >30 μM; FOS, <250 μM or >400 μM; and ACV, <6.5 μM or >40 μM; PCV, <38 μM or >40 μM; FOS, <250 μM or >400 μM for HSV-1 and HSV-2, respectively. Any IC50 values falling in between these sensitive and resistant cut-offs were reported as intermediate resistance.
The phenotype (i.e. reactivity to a drug) of the virus was characterised by the plaque reduction assay as described above.

Nc1nc2c(ncn2COCCO)c(=O)[nH]1 [Aciclovir, acyclovir]
IC50 (72 h, isolate HPG053, HSV-1 pol L802R + A834S (2405T>G, 2500G>T), also TK R176W, read-out: Drug susceptibility (IC50 value)): > 40 µM
IC50 (isolate HPG002, HSV-1 pol E992K (2974G>A), also TK insert (G) nt 430-436, pol A1169T, read-out: Drug susceptibility (IC50 value)): 21.6 µM
IC50 (isolate HPG003, HSV-1 TK Y172S (515A>C), read-out: Drug susceptibility (IC50 value)): 28 µM
IC50 (isolate HPG005, HSV-1 TK A37V (110C>T), read-out: Drug susceptibility (IC50 value)): 1.46 µM
IC50 (isolate HPG008, HSV-1 TK V204G (611T>G), read-out: Drug susceptibility (IC50 value)): 22.5 µM
IC50 (isolate HPG009, HSV-1 pol E992K (2974G>A), also pol A1169T, read-out: Drug susceptibility (IC50 value)): 1.3 µM
IC50 (isolate HPG010, HSV-1 TK Q125* (373C>T), read-out: Drug susceptibility (IC50 value)): 9.21 µM
IC50 (isolate HPG011, HSV-1 TK Q125* (373C>T), read-out: Drug susceptibility (IC50 value)): 13.8 µM
IC50 (isolate HPG013, HSV-1 TK M121I (363G>A), read-out: Drug susceptibility (IC50 value)): 18.8 µM
IC50 (isolate HPG013, HSV-1 pol D83A (248A>C), also TK M121I, pol A1169T, read-out: Drug susceptibility (IC50 value)): 18.8 µM
IC50 (isolate HPG014, HSV-1 pol A1115T (3343G>A), read-out: Drug susceptibility (IC50 value)): 1.41 µM
IC50 (isolate HPG014, HSV-1 pol R993C (2977C>T), read-out: Drug susceptibility (IC50 value)): 1.41 µM
IC50 (isolate HPG014, HSV-1 pol T54A (160A>G), read-out: Drug susceptibility (IC50 value)): 1.41 µM
IC50 (isolate HPG015, HSV-1 pol 966stop or F965_I966insF (2892_2893insT to 2895_2896insT), read-out: Drug susceptibility (IC50 value)): 2.4 µM
IC50 (isolate HPG018, HSV-1 TK frameshift (881delC to 885delC), read-out: Drug susceptibility (IC50 value)): 24.7 µM
IC50 (isolate HPG018, HSV-1 pol P1199T (3595C>A), also TK deletion (C) nt 881-885, pol A1169T, read-out: Drug susceptibility (IC50 value)): 24.7 µM
IC50 (isolate HPG019, HSV-1 pol K750T (2249A>C), also TK deletion (G) nt 430-436, pol A1169T, read-out: Drug susceptibility (IC50 value)): > 40 µM
IC50 (isolate HPG020, HSV-1 pol S911N (2732G>A), also pol A1169T, read-out: Drug susceptibility (IC50 value)): 0.56 µM
IC50 (isolate HPG021, HSV-1 pol R681Q (2042G>A), also TK deletion (G) nt 430-436, read-out: Drug susceptibility (IC50 value)): > 40 µM
IC50 (isolate HPG021, HSV-1 pol T839A (2515A>G), also TK deletion (G) nt 430-436, read-out: Drug susceptibility (IC50 value)): > 40 µM
IC50 (isolate HPG025, HSV-1 pol E850Q (2548G>C), also TK R216C, read-out: Drug susceptibility (IC50 value)): 22.2 µM
IC50 (isolate HPG026, HSV-1 pol E850Q (2548G>C), also TK R216C, pol A1169T, read-out: Drug susceptibility (IC50 value)): 18.1 µM
IC50 (isolate HPG027, HSV-1 TK V204G (611T>G), also pol S914L, A1169AT, read-out: Drug susceptibility (IC50 value)): > 40 µM
IC50 (isolate HPG027, HSV-1 pol S914L (2741C>T), also TK V204G, pol A1169T, read-out: Drug susceptibility (IC50 value)): > 40 µM
IC50 (isolate HPG029, HSV-1 TK Y172S (515A>C), read-out: Drug susceptibility (IC50 value)): > 40 µM
IC50 (isolate HPG031, HSV-1 pol E1120A (3359A>C), also a TK resistance mutation (footnote e), read-out: Drug susceptibility (IC50 value)): 27.7 µM
IC50 (isolate HPG031, HSV-1 pol G139R (415G>C or 415G>A), also a TK resistance mutation (footnote e), read-out: Drug susceptibility (IC50 value)): 27.7 µM
IC50 (isolate HPG032, HSV-1 TK 183* (437_438insA), read-out: Drug susceptibility (IC50 value)): 27.4 µM
IC50 (isolate HPG033, HSV-1 TK I358L (1072A>C), also TK T287M, read-out: Drug susceptibility (IC50 value)): 38.9 µM
IC50 (isolate HPG033, HSV-1 pol N1046T (3137A>C), also TK T287M, pol A1169T, read-out: Drug susceptibility (IC50 value)): 38.9 µM
IC50 (isolate HPG035, HSV-1 pol S239L (716C>T), also pol S724N, read-out: Drug susceptibility (IC50 value)): 5.43 µM
IC50 (isolate HPG037, HSV-1 TK R256W (766C>T), read-out: Drug susceptibility (IC50 value)): 24.8 µM
IC50 (isolate HPG037, HSV-1 TK Y239H (715T>C), read-out: Drug susceptibility (IC50 value)): 24.8 µM
IC50 (isolate HPG039, HSV-1 TK 85* or H58fs (169delC, 170delC, 171delC, or 172delC), read-out: Drug susceptibility (IC50 value)): 25.6 µM
IC50 (isolate HPG040, HSV-1 pol S911N (2732G>A), also TK deletion (C) nt 896-900, pol A1169T, read-out: Drug susceptibility (IC50 value)): > 40 µM
IC50 (isolate HPG041, HSV-1 pol S911N (2732G>A), also pol A1169T, read-out: Drug susceptibility (IC50 value)): 0.5 µM
IC50 (isolate HPG042, HSV-1 pol A972V (2915C>T), also TK deletion (C) nt 881-885, pol A1169T, read-out: Drug susceptibility (IC50 value)): > 40 µM
IC50 (isolate HPG042, HSV-1 pol G22R (64G>A), also TK deletion (C) nt 881-885, pol A1169T, read-out: Drug susceptibility (IC50 value)): > 40 µM
IC50 (isolate HPG043, HSV-1 TK 183* (437_438insA), read-out: Drug susceptibility (IC50 value)): 28.5 µM
IC50 (isolate HPG045, HSV-1 TK L49R (146T>G), read-out: Drug susceptibility (IC50 value)): 31.5 µM
IC50 (isolate HPG045, HSV-1 pol L419I (1255C>A), also TK L49R, pol A1169T, read-out: Drug susceptibility (IC50 value)): 31.5 µM
IC50 (isolate HPG046, HSV-1 TK I166N (497T>A), read-out: Drug susceptibility (IC50 value)): 11.4 µM
IC50 (isolate HPG050, HSV-1 TK Q34* (100C>T), read-out: Drug susceptibility (IC50 value)): > 40 µM
IC50 (isolate HPG051, HSV-1 pol D83A (248A>C), also TK R176stop, read-out: Drug susceptibility (IC50 value)): 29.2 µM
IC50 (isolate HPG052, HSV-1 TK Q34* (100C>T), read-out: Drug susceptibility (IC50 value)): 8.45 µM
IC50 (isolate HPG053, HSV-1 pol S911N (2732G>A), also TK R176W, pol A1169T, read-out: Drug susceptibility (IC50 value)): > 40 µM
IC50 (isolate HPG054, HSV-1 pol E992K (2974G>A), also TK insert (G) nt 430-436, pol A1169T, read-out: Drug susceptibility (IC50 value)): 8.25 µM
IC50 (read-out: Drug susceptibility (IC50 value), isolate HPG005, HSV-1 TK A192T (574G>A)): 1.46 µM
IC50 (read-out: Drug susceptibility (IC50 value), isolate HPG006, HSV-1 pol G121S (361G>A), also a TK resistance mutation (footnote a)): > 40 µM
IC50 (read-out: Drug susceptibility (IC50 value), isolate HPG012, HSV-1 pol G985E (2954G>A), also TK A93V): > 40 µM
IC50 (read-out: Drug susceptibility (IC50 value), isolate HPG016, HSV-1 pol A1169T (3505G>A)): 3.55 µM
IC50 (read-out: Drug susceptibility (IC50 value), isolate HPG037, HSV-1 TK L69M (205>A), also TK Y239H): 24.8 µM
IC50 (read-out: Drug susceptibility (IC50 value), isolate HPG042, HSV-1 TK frameshift (881delC to 885delC)): > 40 µM
IC50 (read-out: Drug susceptibility (IC50 value), isolate HPG047, HSV-1 pol E680 (2039A>C), also TK deletion (C) nt 548-553, pol A1169T): 22.4 µM
